Assay results from patent US20240277749A1, “NEW FORMULATIONS COMPRISING AZACITIDINE” (NANEXA AB, priority 2021, published 2024).

Legend:
clinical = settings: human, plasma, sc, 100 mg/m2
[1] = standard of care over seven consecutive days by injection or infusions, cited from earlier work

Nc1ncn([C@@H]2O[C@H](CO)[C@@H](O)[C@H]2O)c(=O)n1 [azacitidine, 4-amino-1-®-D-ribofuranosyl-s-triazin-2(1H)-one]
AUC(0-inf) (clinical): 1120 ng·h/mL
Cmax (clinical): 562 ng/mL
Tmax (clinical): 0.433 h
half-life (clinical): 6.82 h
average AUC∞ ([1]; 525 mg/m^2 of BSA): 960 ± 458 ng·h/mL
average Cmax [1]: 750 ± 403 ng/mL
